Experiments:
splenic lymphocytes = experiment: Lymphoproliferative assay (tritiated thymidine incorporation, stimulation index); format: cell-based, mice
Experimental: To evaluate the T cell-mediated immune response against the WNV Cp gene product, an in vivo mouse experiment was set up. The quadriceps muscles of 6- to 8-week-old female BALB/c mice (Harlan Sprague Dawley, Inc., Indianapolis, Ind.) were injected with 100 μg of pWNVh-DJY, pWNVy-DJY, or pcDNA3.1 (without an insert) in PBS and 0.25% bupivacaine-HCl (Sigma, St Louis, Mo.). Two weeks later, the mice received a boost of another 100 μg DNA injections. Thirteen days after the boost injection, the mice were sacrificed, the spleens were harvested, and the lymphocytes were isolated and tested for cellular immune responses.
Harvested splenic lymphocytes were pooled for two mice in each immunized group and suspended to a concentration of 5×10^6 cells/ml. A 100 μl aliquot, containing 5×10^5 cells, was immediately added to each well of a 96-well, flat bottom microtiter plate. Reconstituted peptide, in vitro translated protein, or in vitro translation control were added to the wells, at concentrations of 5 μg/ml and 1 μg/ml (and 0.5 μg/ml for in vitro translated protein and in vitro translation control protein). Concanavalin A (Con A) was used as a positive proliferation control. The assay conditions were set up in triplicate. The cells were incubated at 37° C. in 5% CO2 for three days. One μCi of tritiated thymidine was added to each well and the cells were incubated for 18 hours at 37° C. The plate was harvested and the amount of incorporated tritiated thymidine was measured in a Beta Plate reader (Wallac, Turku, Finland). Stimulation Index was determined from the formula: Stimulation Index (SI)=(experimental count/spontaneous count). Spontaneous count wells included 5% fetal bovine serum which served as an irrelevant protein control.
The values presented for each condition are stimulation indices averaged over triplicate wells. For each immunization group tested, splenocytes were pooled from two mice within the group. “H” indicates splenocytes from the pWNVh-DJY-immunized group. “Y” indicates splenocytes from the pWNVh-DJY-immunized group of mice. “pcDNA3.1” indicates splenocytes from the pcDNA3.1-immunized control group of mice. Peptides 1, 2, and 3 are the WNVC-P1, WNVC-P2, and WNVC-P3 peptides described above. “Peptide 123” indicates a mixture of peptide 1, 2, and 3. “Y protein” indicates the Cp protein in vitro translated from the pWNVy-DJY construct. “Ctrl pro” indicates the in vitro translation control, generated with pcDNA3.1 vector containing no expressible insert, as described above. Detection of Intracellular IFN-γ by Flow Cytometry

[1] = system: SH-SY5Y neuroblastoma cells; experiment: TUNEL analysis of cells incubated with peptide; format: cell-based; details: 10 μg peptide per 1×10^5 cells, 24 hours
Experimental: Peptide WNVC-P3, as described in Example 3 and FIG. 11 above, was tested for its ability to induce apoptosis in cells in culture. Peptide WNVC-P3 was incubated with SH-SY5Y neuroblastoma cells (ATCC; Manassas, Va.) at a concentration of 10 μg peptide per 1×10^5 cells.

[2] = splenocytes from H (pWNVh-DJY-immunized) mice, protein or peptide 1 μg/ml
[3] = splenocytes from H (pWNVh-DJY-immunized) mice, protein or peptide 5 μg/ml
[4] = splenocytes from Y group of immunized mice, protein or peptide 1 μg/ml
[5] = splenocytes from Y group of immunized mice, protein or peptide 5 μg/ml
[6] = splenocytes from pcDNA3.1-immunized control mice, protein or peptide 1 μg/ml
[7] = splenocytes from pcDNA3.1-immunized control mice, protein or peptide 5 μg/ml

Substance | Stimulation Index (SI) (splenic lymphocytes; [2]) | Stimulation Index (SI) (splenic lymphocytes; [3]) | Stimulation Index (SI) (splenic lymphocytes; [4]) | Stimulation Index (SI) (splenic lymphocytes; [5]) | Stimulation Index (SI) (splenic lymphocytes; [6]) | Stimulation Index (SI) (splenic lymphocytes; [7]) | TUNEL-positive cells [1]
SKKPGGPGKSRAVNMLKRGMPR [Peptide 1] | 0.7 | 0.5 | 1.2 | 0.8 | 1.3 | 0.9 | 
KRAMLSLIDGKGPIRFVLA [Peptide 2] | 1.3 | 1.7 | 1.8 | 1.6 | 1.0 | 0.9 | 
Concanavalin A [Con A, reference compound] |  | 686.5 |  | 366.9 |  | 71.8 | 
TLTSAINRRSSKQKKRGGKTGI [Peptide 3] | 2.0 | 1.5 | 1.4 | 1.1 | 0.7 | 0.8 | TUNEL-positive cells were identified

From patent US7348138B2, “Method of inducing cell death using West Nile virus capsid protein” (priority 2000, dated 2008)
